Laboratory results as given in patent publication US20010053758A1, “Methods and compositions for the treatment and prevention of lung disease” (priority 1999, published 2001).

Key:
[1] = system: alveolus formation (septation) in rat lung; assay: Alveolus formation in newborn rat pups injected intraperitoneally daily (lung histology and morphometry); format: in vivo, Sprague-Dawley rat
Text: The expression of the RARβ receptor has been associated in certain cases with diminished cell replication. Following the initial injection, the rat pups were subjected to identical daily injections until day 13. A set of rat pups were sacrificed at day 4 and at […] by anesthesia with phenobarbitol sodium and scission of the abdominal aorta. Following sacrifice, rat lungs were fixed and histological sections prepared essentially as described in Massaro et al., Am. J. Physiol. 270: L305 (1996), incorporated by reference herein. The histological sections were viewed and photographs taken under light microscopy.
The differences in alveolar dimensions between treated and untreated rat pups were so pronounced, they were quantitated by measuring the distance between alveolar walls (Lm) and the surface-to-volume ratio (S/V) of the gas-exchange structures (septa). The Lm in cottonseed oil-treated rats was 80 μm±2.8 μm (N=4) compared to 110 μm±7.3 μm (N=3) in RARβ agonist-treated rats (N=3; P=0.03 by Mann Whitney nonparametric analysis). The S/V was 504 μm^−1±18 μm^−1 (N=4) in cottonseed oil-treated rats compared to 365 μm^−1±23 μm^−1 (N=3) in RARβ agonist-treated rats (P=0.03).

RARβ = target: T1, RARβ (Homo sapiens, UniProt P10826); assay: RAR receptor activity as stated for the retinoid ligand; settings: ligand specific to RAR receptors and not to RXR receptors
T1 sequence (P10826 1-455): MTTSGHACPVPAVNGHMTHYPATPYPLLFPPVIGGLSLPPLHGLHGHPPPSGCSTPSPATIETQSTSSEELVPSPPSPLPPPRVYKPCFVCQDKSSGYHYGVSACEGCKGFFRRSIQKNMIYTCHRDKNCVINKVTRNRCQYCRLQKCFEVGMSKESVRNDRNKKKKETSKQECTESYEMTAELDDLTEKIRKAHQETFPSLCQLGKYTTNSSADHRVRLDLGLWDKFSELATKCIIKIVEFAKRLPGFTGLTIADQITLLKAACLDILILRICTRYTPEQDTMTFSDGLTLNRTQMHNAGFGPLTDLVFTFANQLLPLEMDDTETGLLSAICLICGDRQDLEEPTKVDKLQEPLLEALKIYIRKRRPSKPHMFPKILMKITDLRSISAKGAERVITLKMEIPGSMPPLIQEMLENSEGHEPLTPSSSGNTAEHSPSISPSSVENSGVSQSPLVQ
Text: Likewise, methods of screening candidate compounds for Specific RAR modulating activity is routine and well-known in the art. For example, U.S. Pat. No. 5,455,265, incorporated by reference herein, describes a chimeric receptor transactivation assay which tests for RAR-agonist activity in the RAR-α, RAR-β, RAR-γ, RXR-α receptor subtypes. Briefly, this assay employs chimeric proteins containing an RAR ligand-binding domain and a heterologous polypeptide segment having the ability to bind to a response element (RE), in turn facilitating transcription of a specific, measurable target gene, such as chloramphenicol acetyltransferase (CAT). Only an agonist of the given RAR isotype whose ligand binding domain comprises part of the chimeric protein will permit the activation of CAT transcription and expression. […] For example, those ligands able to stimulate CAT synthesis when used in combination with chimeric proteins having RAR binding domains, but not those having RXR ligand binding domains, will be RAR specific agonists.

[2] = system: elastase-induced destruction of alveolar walls; settings: elastase-treated rats; cited from earlier work
[3] = system: alveolus formation in newborn rat lung; settings: newborn rats; cited from earlier work

Compound | histological sections: alveolar size and degree of septation ([1]; age 14 days, treated daily from age 3 through 13 days, versus cottonseed oil alone (FIGS. 1A and 1B)) | distance between alveolar walls (Lm) ([1]; rat pups, 500 micrograms per kg i.p. daily from age 3 to 13 days, age 14 days, N=3, cottonseed oil control 80 μm±2.8 μm, P=0.03) | surface-to-volume ratio (S/V) of the gas-exchange structures ([1]; rat pups, 500 micrograms per kg i.p. daily from age 3 to 13 days, N=3, cottonseed oil control 504 μm^−1±18 μm^−1, P=0.03) | surface area ([1]; rat pups, 500 micrograms per kg i.p. daily from age 3 to 13 days, cottonseed oil control 634 cm^2 ±9 cm^2, P=0.03) | Lung volume ([1]; treated rats versus cottonseed oil-treated rats) | receptor activity (RARβ) | effect on elastase-induced alveolar wall destruction [2] | effect on number of alveoli [3]
CC1(C)CC=C(c2cccs2)c2cc(C#Cc3ccc(C(=O)O)cc3)ccc21 [AGN 193174] | alveoli were larger, and the degree of sepatation less | 110 μm | 365 μm^−1 | 492 cm^2 | the same in both rat groups | RARβ agonist activity |  | 
CC1=C(/C=C/C(C)=C/C=C/C(C)=C/C(=O)O)C(C)(C)CCC1 [all-trans-retinoic acid] |  |  |  |  |  |  | appeared to reverse this destruction | induced the formation of an increased number of alveoli in rats without enlarging the lung
